Values joined by “and” are separate entries in the source; they are usually repeats but may differ in a detail not shown here. Identical values can stand only once.
Assays:
[1] = test system: B16/F10-Luc mouse melanoma cells; assay: In vivo detection by fluorescence imaging of the probe accumulating in a tumour on an animal; details: for Tumour fixation: Fluorescence at t = 24 hrs: individual mice, 24 hrs post-injection, subcutaneous B16/F10-Luc tumour in C57B16 mice; for Tumour fixation: Mean fluorescence: 24 hrs; for Detection of the probe's fluorescence in the tumour in vivo: tumour B16F10 in mice, fluorescence imaging after intravenous injection
Experimental: (§1) 6 healthy male C57B16 mice, aged 11 weeks, were used to evaluate the tolerance of the injection of increasing doses of the probe of example 7 (F98942) (25, 50 and 100 μg). 11 male C57B16 mice aged 10 weeks were grafted subcutaneously on the right rear paw with 2.5.10^5 B16/F10-Luc mouse melanoma cells.
(§2) The probe F98942 is placed in solution in sterile 5% glucose serum extemporaneously.
The mice were injected with 50 μg or 25 μg of F98942 or PBS (Phosphate Buffered Saline) intravenously. They were then anaesthetised by isoflurane gas inhalation (3% isoflurane/oxygen) prior to the fluorescence imaging examination 24 and 48 hours post-injection. After 48 hours, the tumours were removed and analysed by means of fluorescence imaging. […]

[2] = Tolerance of the injection of increasing doses of the probe in healthy mice; type: in vivo; details: healthy male C57B16 mice, 25, 50 and 100 μg
Experimental: as §1, §2

SMILES: CCCCN1/C(=C/C=C/C=C/C=C/C2=[N+](CCCCCC(=O)NCCCNCCCCNCCCN)c3ccccc3C2(C)C)C(C)(C)c2ccccc21.[Br-] [Example F98942, 1-(5-{3-[4-(3-aminopropylamino)butylamino]-propylcarbamoyl}-pentyl)-2-{(1E,3E,5E)-7-[1-butyl-3,3-dimethyl-1,3-dihydroindol-(2E)-ylidene]-hepta-1,3,5-trienyl}-3,3-dimethyl-3H-indolium bromide]
- Tumour fixation: Fluorescence at t = 24 hrs ([1]; 25 μg intravenously): 1.52 · 10^7 [p/s/cm^2/sr]/[μW/cm^2] and 2.10 · 10^7 [p/s/cm^2/sr]/[μW/cm^2]
- Tumour fixation: Fluorescence at t = 24 hrs ([1]; 50 μg intravenously): 3.22 · 10^7 [p/s/cm^2/sr]/[μW/cm^2] and 3.08 · 10^7 [p/s/cm^2/sr]/[μW/cm^2] and 3.12 · 10^7 [p/s/cm^2/sr]/[μW/cm^2] and 3.01 · 10^7 [p/s/cm^2/sr]/[μW/cm^2]
- Tumour fixation: Mean fluorescence ([1]; mean of mice 1-4, 50 μg intravenously): 3.14 · 10^7 [p/s/cm^2/sr]/[μW/cm^2]
- Tumour fixation: Mean fluorescence ([1]; mean of mice 5-6, 25 μg intravenously): 1.81 · 10^7 [p/s/cm^2/sr]/[μW/cm^2]
- Detection of the probe's fluorescence in the tumour in vivo [1]: detected
- Tolerance of injection [2]: well-tolerated regardless of the dose

SMILES: CC1(C)C(/C=C/C2=C(c3ccc(C(=O)NCCCNCCCCNCCCN)cc3)C(=C/C=C3/N(CCCCS(=O)(=O)O)c4ccc5ccccc5c4C3(C)C)/CCC2)=[N+](CCCCS(=O)(=O)[O-])c2ccc3ccccc3c21 [comparative probe, reference compound]
- Detection of the probe's fluorescence in the tumour in vivo [1]: not detected

From US9439982B2, “Fluorescent cyanine-polyamine derivatives as a diagnostic probe” (PIERRE FABRE MEDICAMENT, priority 2010, dated 2016)
